This note sets out measurements from US20230097700A1, “AZETIDINE SULFONAMIDE COMPOUND” (DAIICHI SANKYO COMPANY, LIMITED, priority 2019, published 2023).

In test [1] the test system is IFN-α production in mouse spleen cells. The test is described as follows: IFN-α production in mouse spleen cells stimulated with TLR9 ligand CpG-ODN D35. The class given is cell-based, mouse (C57BL/6J). How it is done: The concentration of test substance added is 1 nM to 300 nM. The graph represents a curve showing response to concentration of a test substance, with the IFN-α production of a group not containing a test substance being specified as 100% and the IFN-α production of a group not stimulated being specified as 0%.
IFN-α production by stimulation with TLR9 ligand CpG-ODN D35 activating pDC was evaluated. Spleen cells were prepared from a C57BL/6J mouse euthanized in the same manner as in Test Example 1 and seeded to a 96-well round-bottom plate. Test substance dissolved in DMSO or vehicle (DMSO) was added to culture medium. After pre-incubation was carried out for 30 minutes, CpG-ODN […] (final concentration 1 μM) was added. Culture was carried out at 37° C. in 5% CO2. After culture was carried out for 24 hours, the culture supernatant was recovered. The concentration of IFN-α in the supernatant was measured by ELISA kit (Mouse IFN-alpha Platinum ELISA Kit, eBioscience). With the IFN-α production of a group not containing a test substance being specified as 100% and the IFN-α production of a group not activated being specified as 0%, relative values of IFN-α production of individual wells (IFN-α production rate, % of vehicle) were calculated. The values of “% of vehicle” of IFN-α production were entered in analysis software Prism (Version 5.0, GraphPad Software). […]

Test [2] concerns activated T cells (CD4+ T cells derived from the mouse spleen). The test is described as follows: Incorporation of 3H-thymidine into activated T cells. The following applies: 3H-thymidine incorporation, mouse spleen CD4+ T cells activated with Dynabeads Mouse T-Activator CD3/CD28. The class given is cell-based, mouse (C57BL/6J). How it is done:
Effect of a test substance on incorporation of ^3H-thymidine was evaluated using T cells derived from the mouse spleen. The spleen was excised out from a C57BL/6J mouse euthanized, cut into pieces, ground on a cell strainer (40 μm mesh) and centrifuged to collect spleen cells. CD4+ T cells were isolated from the spleen cells by use of EasySep Mouse CD4+ T cell isolation kit (STEMCELL Technologies). CD4+ T cells were seeded to a 96-well round-bottom plate. Test substance dissolved in DMSO (dimethyl sulfoxide) or vehicle (DMSO) was added to culture medium and Dynabeads Mouse T-Activator CD3/CD28 (Thermo Fisher Scientific Inc.) was added. Culture was carried out at 37° C. in 5% CO2. After culture was carried out for 24 hours, ^3H-thymidine (PerkinElmer) diluted with the culture medium was added to individual wells. Culture was further carried out overnight at 37° C. in 5% CO2. In order to measure ^3H-thymidine incorporated in nuclei of the cells, the cells were collected on a filter plate UniFilter-96 GF/B (PerkinElmer) by use of a FilterMate Universal Harvester (PerkinElmer). After the filter plate was placed in a dryer and allowed to stand still for 2 hours or more, scintillation cocktail MicroScint-O (PerkinElmer) was added and radioactivity was measured by TopCount NXT (PerkinElmer). With the radioactivity of a group not containing a test substance being specified as 100% and the radioactivity of a group not activated being specified as 0%, relative radioactivity values of individual wells to which the test substance was added (proliferation rate, % of vehicle) were calculated. The values of “% of vehicle” were entered in analysis software Prism (Version 4.03, GraphPad Software). “Nonlinear regression Log (inhibitor) vs reaction variable tilt” was selected and sigmoid type-fitting (Bottom=0, Top=100) was carried out to calculate 50% inhibition concentration (IC50). The compound of the present invention suppresses ^3H-thymidine incorporation in activated T cells.
A general note: Uptake of a labelled nucleoside into DNA is a usual measure of proliferation.

The subject of test [3] is ConA induced mouse cytokine production model. The test is described as follows: ConA induced mouse cytokine production model, IFN-γ in the plasma. The class given is in vivo, mouse (Balb/c). The following applies: one hour before second ConA treatment. The protocol:
In this test, mice were treated with concanavalin A (ConA) to activate lymphocytes and the medicinal effect of a test substance was evaluated based on the production of IFN-γ. A system in which cytokine production based on expression of LAT1 is induced, by treating mice with ConA twice at optimal timing, was established. To female Balb/c mice of 7 weeks old, a ConA solution (0.4 mg/mL, Concanavalin A, WAKO, 037-08774) prepared with PBS (D-PBS (−), WAKO, 049-29793) was administered (4 mg/kg, twice at an interval of 16 hours) through the tail vein. Four hours later, under anesthesia by isoflurane inhalation, blood was taken from the posterior vena cava of each of the mice. The blood was centrifuged to collect the plasma. The concentration of IFN-γ in the in plasma was measured by AlphaLISA immunoassay kit (Mouse Interferon-gamma (mIFN-γ) Kit, PerkinElmer, AL501C). Test substance was dissolved in 0.5% MC or mushed in an agate mortar, suspended in 0.5% MC to prepare a solution to be administered (1 or 3 mg/mL) and orally administered one hour before the second treatment with ConA so as to be 10 mL/kg (10 or 30 mg/kg. To Vehicle group, 0.5% MC was administered similarly so as to be 10 mL/kg). Test substances were evaluated. Suppression rates (%) were calculated in accordance with the following expression. Suppression rate (%)=100−[(average value of test substance administration group−average value of Normal group)/(average value of Vehicle group−average value of Normal group)×100] Whether the data of two groups, Normal group and Vehicle group, differ or not was determined by Student's or Welch's t test. Whether the data of Vehicle group and a test substance administration group are different or not was analyzed by parametric multiple comparison test, Dunnett test. The compounds (test substances) suppressed IFN-γ production in a dose-dependent manner.

Structures are written as SMILES.

Take `N[C@@H](Cc1cccc(S(=O)(=O)N2CC(Oc3cccc(F)c3)(c3ccccc3)C2)c1)C(=O)O` [Example 1, (2S)-2-Amino-3-(3-{[3-(3-fluorophenoxy)-3-phenylazetidin-1-yl]sulfonyl)phenyl)propanoic acid]: the IC50 (as a rule, the midpoint of a concentration-inhibition curve) in test [1] (CpG-ODN stimulation 1 μM, 24 hours, ELISA) was 0.013 µM; in test [2], 0.02 µM. For the same compound, in test [1] (test substance 1 nM to 300 nM), the “suppressive action on IFN-α production” value is given as “concentration-dependent suppressive action”.
`Cl.[2H]c1c([2H])c([2H])c(OC2(c3ccccc3)CN(S(=O)(=O)c3cccc(C[C@H](N)C(=O)OC(C(=O)N(C)C)C(C)C)c3)C2)c([2H])c1[2H]` (stereo partly drawn) [Example 25, 1-(Dimethylamino)-3-methyl-1-oxobutan-2-yl (2S)-2-amino-3-(3-{3-phenyl-3-[(^2H5)phenyloxy]azetidin-1-sulfonyl}phenyl)propanoate monohydrochloride]: the “Percent suppression (%)” value was found to be 31% in test [3] (10 mg/kg oral) and 51% in test [3] (30 mg/kg oral).
The corresponding values for `Cl.[2H]c1c([2H])c([2H])c(OC2(c3ccc(F)cc3)CN(S(=O)(=O)c3cccc(C[C@H](N)C(=O)OC(C(=O)N(C)C)C(C)C)c3)C2)c([2H])c1[2H]` (stereo partly drawn) [Example 27, 1-(Dimethylamino)-3-methyl-1-oxobutan-2-yl (2S)-2-amino-3-(3-{3-(4-fluorophenyl)-3-[(^2H5)phenyloxy]azetidin-1-sulfonyl}phenyl)propanoate monohydrochloride] are 47% and 58%.
Regarding `CC(OC(=O)[C@@H](N)Cc1cccc(S(=O)(=O)N2CC(Oc3ccc(F)cc3)(c3ccc(F)cn3)C2)c1)C(=O)N(C)C.Cl.Cl` (stereo partly drawn) [Example 62, 1-(Dimethylamino)-1-oxopurpan-2-yl (2S)-2-amino-3-(3-{[3-(4-fluorophenoxy)-3-(5-fluoropyridin-2-yl)azetidin-1-yl]sulfonyl}phenyl)propanoate dihydrochloride], the “Percent suppression (%)” value in test [3] (10 mg/kg oral) turned out to be 43%; in test [3] (30 mg/kg oral) it was 54%.
The corresponding values for `CC(C)C(OC(=O)[C@@H](N)Cc1cccc(S(=O)(=O)N2CC(Oc3ccc(F)cc3)(c3ccc(F)cn3)C2)c1)C(=O)N(C)C.Cl.Cl` (stereo partly drawn) [Example 69, 1-(Dimethylamino)-3-methyl-1-oxobutan-2-yl (2S)-2-amino-3-(3-{[3-(4-fluorophenoxy)-3-(5-fluoropyridin-2-yl)azetidin-1-yl]sulfonyl}phenyl)propanoate dihydrochloride] are 33% and 44%.
As to `CC(C)C(OC(=O)[C@@H](N)Cc1cccc(S(=O)(=O)N2CC(Oc3ccccc3)(c3ccccc3)C2)c1)C(=O)N(C)C.Cl` (stereo partly drawn) [Example 91, 1-(Dimethylamino)-3-methyl-1-oxobutan-2-yl (2S)-2-amino-3-[3-(3-phenoxy-3-phenylazetidin-1-sulfonyl)phenyl]propanoate monohydrochloride], the entries for the “Percent suppression (%)” value in test [3] (10 mg/kg oral) and in test [3] (30 mg/kg oral) were 55% and 53%, respectively.
On the same counts, the results for `CC(C)C(OC(=O)[C@@H](N)Cc1cccc(S(=O)(=O)N2CC(Oc3ccccc3)(c3ccc(F)cc3)C2)c1)C(=O)N(C)C.Cl` (stereo partly drawn) [Example 93, 1-(Dimethylamino)-3-methyl-1-oxobutan-2-yl (2S)-2-amino-3-(3-{[3-(4-fluorophenyl)-3-phenoxyazetidin-1-yl]sulfonyl}phenyl)propanoate monohydrochloride] are 46% and 34%.
